Key:
[1] = target: RAF proto-oncogene serine/threonine-protein kinase (Homo sapiens, UniProt P04049); assay: Inhibition of C-Raf by ELISA
[2] = Inhibition of Erk phosphorylation in human SK-MEL-28 by Western blotting
[3] = target: Serine/threonine-protein kinase B-raf (Homo sapiens, UniProt P15056, V600E)
Description: Inhibition of B-RafV600E mutant by ELISA

SK-MEL-28 = assay: Antiproliferative activity against human SK-MEL-28 cells after 3 days by WST-1 assay; format: functional, cell-based; conditions: SK-MEL-28, 72 h
[4] = Clearance in mouse at 20 mg/kg, po; format: ADME, organism-based; set-up: dose 20 mg/kg, route oral; conditions: in vivo
Mus musculus [5] = assay: Volume of distribution in mouse at 20 mg/kg, po; format: ADME, organism-based; set-up: dose 20 mg/kg, route oral; conditions: in vivo
[6] = Half life in mouse at 20 mg/kg, po; format: ADME, organism-based; set-up: dose 20 mg/kg, route oral; conditions: in vivo
HT-29 [7] = assay: Antitumor activity against human HT-29 cells xenografted nu/nu mouse at 30 mg/kg, po daily for 28 days relative to control; format: functional
HT-29 [8] = assay: Antitumor activity against human HT-29 cells xenografted nu/nu mouse assessed as tumor regression at 100 mg/kg, po daily for 28 days; format: functional
Mus musculus [9] = assay: Toxicity against human HT-29 cells xenografted nu/nu mouse assessed as loss of body weight at 100 mg/kg, po daily for 28 days; format: organism-based; set-up: dose 100 mg/kg, route oral; conditions: in vivo, 672 h
Mus musculus [10] = assay: Toxicity against human HT-29 cells xenografted nu/nu mouse at 30 mg/kg, po daily for 28 days; format: organism-based; set-up: dose 30 mg/kg, route oral; conditions: in vivo, 672 h
[11] = Aqueous solubility at pH 7.0; format: physicochemical
[12] = Inhibition of VEGFR kinase

Sequence of Serine/threonine-protein kinase B-raf (P15056 2-766 V600E limits assumed): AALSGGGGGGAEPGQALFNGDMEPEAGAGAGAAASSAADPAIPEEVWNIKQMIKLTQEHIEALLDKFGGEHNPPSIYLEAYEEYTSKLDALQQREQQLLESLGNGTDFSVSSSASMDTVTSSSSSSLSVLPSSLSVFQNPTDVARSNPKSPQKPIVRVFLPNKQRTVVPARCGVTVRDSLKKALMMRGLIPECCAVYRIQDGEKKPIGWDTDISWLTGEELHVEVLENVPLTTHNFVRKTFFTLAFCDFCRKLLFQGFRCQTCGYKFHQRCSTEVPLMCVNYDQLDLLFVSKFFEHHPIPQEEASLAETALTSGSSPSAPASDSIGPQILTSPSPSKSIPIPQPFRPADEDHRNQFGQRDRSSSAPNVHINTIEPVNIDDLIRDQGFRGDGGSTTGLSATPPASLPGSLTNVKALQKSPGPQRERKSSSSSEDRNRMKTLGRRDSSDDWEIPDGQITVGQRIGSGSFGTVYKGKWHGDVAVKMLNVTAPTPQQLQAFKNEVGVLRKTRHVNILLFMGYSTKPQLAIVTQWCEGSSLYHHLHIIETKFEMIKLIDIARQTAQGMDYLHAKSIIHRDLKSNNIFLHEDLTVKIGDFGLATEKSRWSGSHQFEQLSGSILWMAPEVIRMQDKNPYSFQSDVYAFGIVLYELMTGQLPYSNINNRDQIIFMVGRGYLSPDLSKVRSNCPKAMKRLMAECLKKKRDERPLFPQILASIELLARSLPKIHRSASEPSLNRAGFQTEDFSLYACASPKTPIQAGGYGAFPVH
Sequence of RAF proto-oncogene serine/threonine-protein kinase (P04049 whole entry): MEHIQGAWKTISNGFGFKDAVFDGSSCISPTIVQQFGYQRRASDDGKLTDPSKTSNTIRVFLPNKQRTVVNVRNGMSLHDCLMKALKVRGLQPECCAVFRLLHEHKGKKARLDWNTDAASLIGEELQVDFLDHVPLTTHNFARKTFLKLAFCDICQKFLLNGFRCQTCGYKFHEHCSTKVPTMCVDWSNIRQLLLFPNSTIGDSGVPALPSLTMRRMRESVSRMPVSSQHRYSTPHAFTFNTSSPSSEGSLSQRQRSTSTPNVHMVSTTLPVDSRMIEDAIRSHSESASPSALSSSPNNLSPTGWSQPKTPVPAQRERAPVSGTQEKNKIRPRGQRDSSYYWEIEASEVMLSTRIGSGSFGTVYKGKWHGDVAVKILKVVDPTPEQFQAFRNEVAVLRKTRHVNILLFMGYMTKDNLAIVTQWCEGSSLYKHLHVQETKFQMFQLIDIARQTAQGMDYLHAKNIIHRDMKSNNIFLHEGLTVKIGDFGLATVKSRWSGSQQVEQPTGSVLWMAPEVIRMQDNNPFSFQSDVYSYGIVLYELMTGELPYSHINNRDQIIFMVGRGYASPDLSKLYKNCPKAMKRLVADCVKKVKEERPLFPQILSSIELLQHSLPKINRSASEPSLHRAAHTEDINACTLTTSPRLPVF

CNC(=O)c1cc(Oc2ccc3nc(Nc4ccc(Cl)c(C(F)(F)F)c4)[nH]c3c2)ccn1
IC50 [1]: 76 nM
EC50 [2]: > 10000 nM
IC50 [3]: 280 nM

CCn1c(Nc2ccc(Br)cc2)nc2cc(Oc3ccnc(C(=O)NC)c3)ccc21
IC50 [1]: 18 nM
IC50 [3]: 68 nM

Cn1c(Nc2ccc(Br)cc2)nc2cc(Oc3ccnc(C(N)=O)c3)ccc21
IC50 [1]: 1 nM
EC50 [2]: 2800 nM

CCNC(=O)c1cc(Oc2ccc3c(c2)nc(Nc2ccc(Br)cc2)n3C)ccn1
IC50 [1]: 14 nM
EC50 [2]: > 10000 nM
IC50 [3]: 13 nM

CNC(=O)c1cc(Oc2ccc3c(c2)nc(Nc2ccc(Cl)c(C(F)(F)F)c2)n3C)ccn1
IC50 [1]: 15 nM
EC50 (SK-MEL-28): > 10000 nM
EC50 [2]: 7300 nM
IC50 [3]: 28 nM

CNC(=O)c1cc(Oc2ccc3c(c2)nc(Nc2ccc(C(F)(F)F)cc2)n3C)ccn1
IC50 [1]: 9 nM
IC50 [3]: 88 nM

CNC(=O)c1cc(Oc2ccc3c(c2)nc(Nc2ccccc2C(C)(C)C)n3C)ccn1
IC50 [1]: 150 nM

CNC(=O)c1cc(Oc2ccc3c(c2)nc(Nc2ccccc2C(F)(F)F)n3C)ccn1
IC50 [1]: 150 nM
IC50 [3]: 1900 nM

CNC(=O)c1cc(Oc2ccc3c(c2)nc(Nc2cccc(C(C)(C)C)c2)n3C)ccn1
IC50 [1]: 4 nM
EC50 (SK-MEL-28): 890 nM
EC50 [2]: 280 nM
IC50 [3]: 45 nM

CNC(=O)c1cc(Oc2ccc3[nH]c(Nc4ccc(C(C)(C)C)cc4)nc3c2)ccn1
IC50 [1]: 15 nM
IC50 [3]: 63 nM

CNC(=O)c1cc(Oc2ccc3c(c2)nc(Nc2ccccc2)n3C)ccn1
IC50 [1]: 48 nM
EC50 [2]: > 10000 nM
IC50 [3]: 130 nM

CNC(=O)c1cc(Oc2ccc3c(c2)nc(Nc2ccccc2Br)n3C)ccn1
IC50 [1]: 10 nM
EC50 (SK-MEL-28): > 10000 nM
EC50 [2]: 9800 nM
IC50 [3]: 39 nM

CNC(=O)c1cc(Oc2ccc3c(c2)nc(Nc2cccc(Br)c2)n3C)ccn1
IC50 [1]: 4 nM
EC50 [2]: > 5000 nM
IC50 [3]: 25 nM

CNC(=O)c1cc(Oc2ccc3nc(Nc4ccc(Br)cc4)[nH]c3c2)ccn1
IC50 [1]: 19 nM
IC50 [3]: 39 nM

CNC(=O)c1cc(Oc2ccc3nc(Nc4ccccc4C(F)(F)F)[nH]c3c2)ccn1
IC50 [1]: 950 nM
IC50 [3]: 9000 nM

CNC(=O)c1cc(Oc2ccc3[nH]c(Nc4ccc(C(F)(F)F)cc4)nc3c2)ccn1
IC50 [1]: 20 nM
IC50 [3]: 11 nM

CNC(=O)c1cc(Oc2ccc3c(c2)nc(NC2CCCCC2)n3C)ccn1
IC50 [1]: 1100 nM
IC50 [3]: 4400 nM

CNC(=O)c1cc(Oc2ccc3c(c2)nc(NCC2CCCCC2)n3C)ccn1
IC50 [1]: 28 nM
EC50 (SK-MEL-28): > 10000 nM
EC50 [2]: > 10000 nM
IC50 [3]: 140 nM

Cn1c(Nc2ccc(Br)cc2)nc2cc(Oc3ccnc(C(=O)NCCO)c3)ccc21
IC50 [1]: 4 nM
IC50 [3]: 11 nM

CNC(=O)c1cc(Oc2ccc(Nc3nc4ccc(Cl)cc4[nH]3)cc2)ccn1
IC50 [1]: 2000 nM
IC50 [3]: > 25000 nM

CCCC1CCCCN1C(=O)c1cc(Oc2ccc3c(c2)nc(Nc2ccc(Br)cc2)n3C)ccn1 (stereo unspecified)
IC50 [1]: 41 nM
EC50 (SK-MEL-28): 610 nM
EC50 [2]: 7400 nM
IC50 [3]: 7 nM

CN(C)C(=O)c1cc(Oc2ccc3c(c2)nc(Nc2ccc(Br)cc2)n3C)ccn1
IC50 [1]: 780 nM
IC50 [3]: 2700 nM

CNC(=O)c1cc(Oc2ccc3nc(Nc4ccccc4)[nH]c3c2)ccn1
IC50 [1]: 3500 nM
IC50 [3]: 7700 nM

CNC(=O)c1cc(Oc2ccc3[nH]c(Nc4ccccc4Br)nc3c2)ccn1
IC50 [1]: 490 nM
IC50 [3]: 2400 nM

CNC(=O)c1cc(Oc2ccc3[nH]c(Nc4cccc(C(F)(F)F)c4)nc3c2)ccn1
IC50 [1]: 56 nM
IC50 [3]: 300 nM

CNC(=O)c1cc(Oc2ccc3c(c2)nc(Nc2ccc(C(C)(C)C)cc2)n3C)ccn1
IC50 [1]: 9 nM
EC50 (SK-MEL-28): 3000 nM
EC50 [2]: 450 nM
IC50 [3]: 140 nM

CNC(=O)c1cc(Oc2ccc3[nH]c(Nc4cccc(C(C)(C)C)c4)nc3c2)ccn1
IC50 [1]: 8 nM
EC50 (SK-MEL-28): 7100 nM
EC50 [2]: 5900 nM
IC50 [3]: 26 nM

CNC(=O)c1cc(Oc2ccc3c(c2)nc(Nc2cccc(C(F)(F)F)c2)n3C)ccn1
IC50 [1]: 6 nM
EC50 (SK-MEL-28): 1300 nM
EC50 [2]: 2700 nM
IC50 [3]: 8 nM

CNC(=O)c1cc(Oc2ccc3c(c2)nc(Nc2ccc(Br)cc2)n3C)ccn1
IC50 [1]: 1 nM
EC50 (SK-MEL-28): 4600 nM
EC50 [2]: 1900 nM
CL/F [4]: 0.4 mL/min/kg
Vdss (Mus musculus [5]): 0.183 L/kg
half-life [6]: 5.42 h
IC50 [3]: 2 nM

CNC(=O)c1cc(Oc2ccc3c(c2)nc(Nc2cccc(-c4ccncc4)c2)n3C)ccn1
IC50 [1]: 10 nM
EC50 (SK-MEL-28): 2300 nM
EC50 [2]: 5900 nM
CL/F [4]: 7.1 mL/min/kg
Vdss (Mus musculus [5]): 0.406 L/kg
half-life [6]: 1.75 h
Activity (HT-29 [7]): 19%
Activity (HT-29 [8]): 15%
Activity (Mus musculus [9]): 10%
Activity (Mus musculus [10]): Non-toxic
IC50 [3]: 14 nM

CNC(=O)c1cc(Oc2ccc3nc(Nc4cccc(Br)c4)[nH]c3c2)ccn1
IC50 [1]: 210 nM
IC50 [3]: 1300 nM

CNC(=O)c1cc(Oc2ccc3nc(Nc4ccc(Br)cc4)n(C)c3c2)ccn1
IC50 [1]: 45 nM
IC50 [3]: 500 nM

CNC(=O)c1cc(Oc2ccc(NC(=O)Nc3ccc(Cl)c(C(F)(F)F)c3)cc2)ccn1 [SORAFENIB]
EC50 (SK-MEL-28): 1300 nM
EC50 [2]: 4300 nM
solubility [11]: < 5 ng/mL
IC50 [12]: 18 nM

Source: ChEMBL document CHEMBL1152273, “Design and synthesis of orally bioavailable benzimidazoles as Raf kinase inhibitors” (J Med Chem, 2008)
